In one assay the target is T1, hCA VI (Homo sapiens, UniProt P23280).
T1 construct: gene CA6; secreted isoform; in-house recombinant protein; construct not described here
In words: stopped-flow CO2 hydrase assay. The assay is classed as biochemical. The source says:
stopped-flow CO2 hydrase assay on hCA VI

Another assay has as its target T2, hCA VII (Homo sapiens, UniProt P43166).
T2 construct: gene CA7; in-house recombinant protein; construct not described here
Description: stopped-flow CO2 hydrase assay. It counts as biochemical. The source says: stopped-flow CO2 hydrase assay on hCA VII

A further assay has as its target T3, hCA IX (Homo sapiens, UniProt Q16790).
T3 construct: gene CA9
In words: stopped-flow CO2 hydrase assay. It counts as biochemical. An excerpt: stopped-flow CO2 hydrase assay on hCA IX

For a further assay, the target named is T4, hCA II (Homo sapiens, UniProt P00918).
T4 construct: gene CA2; recombinant from plasmid pACA/hCA II, E. coli BL21 (DE3)
Description: stopped-flow CO2 hydrase assay. The assay is classed as biochemical. The source says:
(§1) stopped-flow CO2 hydrase assay on hCA II

The next assay concerns the target T5, hCA I (Homo sapiens, UniProt P00915).
T5 construct: gene CA1; recombinant from plasmid pACA/hCA I, E. coli BL21 (DE3)
In words: stopped-flow CO2 hydrase assay. The assay is classed as biochemical. An excerpt:
stopped-flow CO2 hydrase assay on hCA I

The nature of assay [1]: stopped-flow CO2 hydrase assay. The following applies: read-out: KI (μM) ^a / hCA I. The assay is classed as biochemical, Homo sapiens.
Text: as §1

T1 sequence (P23280 18-308): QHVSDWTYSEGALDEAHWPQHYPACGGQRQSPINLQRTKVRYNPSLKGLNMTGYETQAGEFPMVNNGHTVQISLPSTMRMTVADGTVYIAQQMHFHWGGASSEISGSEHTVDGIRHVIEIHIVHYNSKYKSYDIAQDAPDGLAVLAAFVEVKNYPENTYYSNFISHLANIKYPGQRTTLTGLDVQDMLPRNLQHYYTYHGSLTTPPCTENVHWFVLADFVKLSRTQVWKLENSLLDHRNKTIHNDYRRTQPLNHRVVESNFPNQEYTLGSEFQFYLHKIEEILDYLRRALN
T2 sequence (P43166 whole entry): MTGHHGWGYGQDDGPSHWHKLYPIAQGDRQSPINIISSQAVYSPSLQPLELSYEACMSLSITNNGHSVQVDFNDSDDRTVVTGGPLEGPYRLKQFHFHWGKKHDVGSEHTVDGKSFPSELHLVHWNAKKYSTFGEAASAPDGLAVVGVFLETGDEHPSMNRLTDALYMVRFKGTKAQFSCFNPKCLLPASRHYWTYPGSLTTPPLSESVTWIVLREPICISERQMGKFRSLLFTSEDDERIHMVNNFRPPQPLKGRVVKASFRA
T5 sequence (P00915 2-261): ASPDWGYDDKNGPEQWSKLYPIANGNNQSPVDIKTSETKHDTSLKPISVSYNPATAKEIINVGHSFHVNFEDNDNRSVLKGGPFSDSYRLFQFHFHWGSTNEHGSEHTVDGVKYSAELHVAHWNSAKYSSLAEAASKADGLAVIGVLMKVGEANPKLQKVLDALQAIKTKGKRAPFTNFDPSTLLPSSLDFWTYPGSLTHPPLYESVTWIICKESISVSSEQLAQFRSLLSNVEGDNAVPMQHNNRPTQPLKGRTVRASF

Regarding `O=C1CN(N2C(=O)c3ccccc3C2=O)C(=O)N1` [3a, Potassium 3-(1,3-dioxoisoindolin-2-yl)-2,5-dioxoimidazolidin-1-ide], the Ki was 0.405 µM at hCA VI; 0.075 µM on hCA VII; 0.331 µM on hCA IX; 6.94 µM at hCA II; more than 100 µM at hCA I.
On the same counts, the results for `O=C1CN(N2C(=O)c3ccc([N+](=O)[O-])cc3C2=O)C(=O)N1` [3b, Potassium 3-(5-nitro-1,3-dioxoisoindolin-2-yl)-2,5-dioxoimidazolidin-1-ide] are 0.701 µM, 0.163 µM, 0.488 µM, 8.99 µM and more than 100 µM.
Consider `O=C1CN(N2C(=O)c3ccccc3C2=O)C(=O)N1Cc1ccccc1` [6a, 2-(3-Benzyl-2,4-dioxoimidazolidin-1-yl)isoindoline-1,3-dione], for which the Ki at hCA VI is 57.7 µM; on hCA VII it was 33.7 µM; at hCA IX, 3.73 µM; in assay [1], more than 100 µM; at hCA I, more than 100 µM.
Take `O=C1CN(N2C(=O)c3ccc([N+](=O)[O-])cc3C2=O)C(=O)N1Cc1ccccc1` [6b, 2-(3-Benzyl-2,4-dioxoimidazolidin-1-yl)-5-nitroisoindoline-1,3-dione]: the Ki is 40.2 µM on hCA VI; 45.9 µM at hCA VII; 2.73 µM on hCA IX; more than 100 µM in assay [1]; more than 100 µM at hCA I.
Regarding `O=C1CN(N2C(=O)c3ccccc3C2=O)C(=O)N1Cc1ccc([N+](=O)[O-])cc1` [6c, 2-(3-(4-Nitrobenzyl)-2,4-dioxoimidazolidin-1-yl)isoindoline-1,3-dione], the Ki was 50.2 µM on hCA VI; 37.6 µM on hCA VII; 5.68 µM at hCA IX; more than 100 µM in assay [1]; more than 100 µM on hCA I.
With `O=C1CN(N2C(=O)c3ccc([N+](=O)[O-])cc3C2=O)C(=O)N1Cc1ccc([N+](=O)[O-])cc1` [6d, 5-Nitro-2-(3-(4-nitrobenzyl)-2,4-dioxoimidazolidin-1-yl)isoindoline-1,3-dione], the Ki is 49.8 µM at hCA VI; 26.3 µM at hCA VII; 4.58 µM at hCA IX; more than 100 µM in assay [1]; more than 100 µM at hCA I.
Consider `N#Cc1ccc(CN2C(=O)CN(N3C(=O)c4ccccc4C3=O)C2=O)cc1` [6e, 4-((3-(1,3-Dioxoisoindolin-2-yl)-2,5-dioxoimidazolidin-1-yl)methyl)benzonitrile], for which the Ki at hCA VI is 48.5 µM; at hCA VII it was 59.1 µM; at hCA IX, 4.82 µM; in assay [1], more than 100 µM; at hCA I, more than 100 µM.
As to `N#Cc1ccc(CN2C(=O)CN(N3C(=O)c4ccc([N+](=O)[O-])cc4C3=O)C2=O)cc1` [6f, 4-((3-(5-Nitro-1,3-dioxoisoindolin-2-yl)-2,5-dioxoimidazolidin-1-yl)methyl)benzonitrile], the Ki on hCA VI was 64.3 µM; on hCA VII it was 50.5 µM; at hCA IX, 6.49 µM; in assay [1] it was more than 100 µM; on hCA I, more than 100 µM.
As for `O=C1CN(NC(=O)c2cc([N+](=O)[O-])ccc2C(=O)O)C(=O)N1` [compound 5, 2-((2,4-Dioxoimidazolidin-1-yl)carbamoyl)-4-nitrobenzoic acid], the Ki was 10.5 µM at hCA VI; 13.9 µM at hCA VII; 4.06 µM at hCA IX; 58.6 µM on hCA II; more than 100 µM at hCA I.
